The values below come from US9718790B2, “Triazine derivative and pharmaceutical composition having an analgesic activity comprising the same” (SHIONOGI & CO., LTD., priority 2010, dated 2017).

In the first experiment the target is human P2X3 receptor (Homo sapiens (Human), UniProt P56373). As to the kind of experiment: Evaluation of human P2X3 receptor inhibitory activity (Fluo-3 calcium fluorescence, FDSS 3000, ATP stimulation).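 Note: stimulus was 50 nM ATP with fluorescence followed for 3 min, and the response per well was peak post-ATP fluorescence divided by the reading at measurement start.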 In kind it is cell-based. To be noted: C6BU-1 cells stably expressing human P2X3 receptor.
Chain of human P2X3 receptor (P56373 whole entry): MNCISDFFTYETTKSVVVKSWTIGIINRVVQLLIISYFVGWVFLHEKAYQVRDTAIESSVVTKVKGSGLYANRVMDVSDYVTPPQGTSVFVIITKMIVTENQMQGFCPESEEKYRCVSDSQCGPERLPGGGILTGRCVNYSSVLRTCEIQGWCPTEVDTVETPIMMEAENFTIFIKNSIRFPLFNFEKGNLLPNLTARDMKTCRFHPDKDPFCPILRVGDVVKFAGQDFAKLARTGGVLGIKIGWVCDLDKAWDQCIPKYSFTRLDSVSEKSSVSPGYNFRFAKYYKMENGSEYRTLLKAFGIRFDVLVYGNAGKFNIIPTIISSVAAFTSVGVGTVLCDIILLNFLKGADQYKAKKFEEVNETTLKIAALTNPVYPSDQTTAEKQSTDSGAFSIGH
In general, IC50 refers to the point on the concentration scale where inhibition reaches its midpoint. Turning to `CCc1nc2ccc(/N=c3\[nH]c(=O)n(C[C@H](C)C(=O)O)c(=O)n3Cc3ccc(Cl)cc3)cc2o1` [Compound I-1382], the half-maximal inhibitory concentration (IC50) is 257 nM.

`Cc1cc(/N=c2\[nH]c(=O)n(Cc3cccn(CCOC4CCCCO4)c3=O)c(=O)n2Cc2ccc(Cl)cc2)ccc1OC(C)C` (centres unmarked) [Compound I-0712]: the half-maximal inhibitory concentration (IC50) worked out at 25 nM.

With `Cc1ccc(Cn2c(=O)n(CC3(C(=O)O)CC3)c(=O)[nH]/c2=N\c2ccc(CC(C)C)c(Cl)c2)cc1` [Compound I-1451], the half-maximal inhibitory concentration (IC50) was 5 nM.

Turning to `Cc1ccc(Oc2ccc(/N=c3\[nH]c(=O)n(CCC(=O)O)c(=O)n3Cc3ccc(Cl)cc3)cc2)cn1` [Compound I-1357], the IC50 is 25 nM.

For the compound `CCn1c(=O)[nH]/c(=N\c2ccc(Oc3cc(C(=O)OC)on3)cc2)n(Cc2ccc(Cl)cc2)c1=O` [Compound I-1941], the concentration for half-maximal inhibition (IC50) was 5 nM.

As for `Cc1ccc(Cn2c(=O)n(C[C@H](C)C(=O)O)c(=O)[nH]/c2=N\c2ccc(C(=O)C3CC3)cc2)cc1` [Compound I-1305], the 50% inhibitory concentration (IC50) came out at 227 nM.

For `CC(C)Oc1ccc(/N=c2\[nH]c(=O)[nH]c(=O)n2Cc2ccc(Cl)cc2)cc1` [Compound I-1981], the IC50 is 354 nM.

For `Cc1ccc(Oc2ccc(/N=c3\[nH]c(=O)n([C@H](C)[C@H](C)C(=O)O)c(=O)n3Cc3ccc(Cl)cc3)cc2)cn1` [Compound I-1389], the IC50 was determined as 12 nM.

Turning to `CC(C)Oc1ccc(/N=c2\[nH]c(=O)n(CCC(=O)NO)c(=O)n2Cc2ccc(Cl)cc2)cc1F` [Compound I-0603], the half-inhibitory concentration (IC50) turned out to be 12 nM.

For the compound `Cc1ccc(Cn2c(=O)n(C[C@H](C)C(=O)O)c(=O)[nH]/c2=N\c2ccc(Oc3ccnc(C)c3)cc2)cc1` [Compound I-1269], the IC50 stood at 8 nM.

For the compound `COc1cc(/N=c2\[nH]c(=O)n(CCCOC3CCCCO3)c(=O)n2Cc2ccc(Cl)cc2)ccc1OC(C)C` (centres unmarked) [Compound I-2000], the concentration for half-maximal inhibition (IC50) was 3 nM.

For `Cc1ccc(Cn2c(=O)n(CCC(=O)O)c(=O)[nH]/c2=N\c2ccc3[nH]c(=O)sc3c2)cc1` [Compound I-2133], the IC50 worked out at 182 nM.

As for `CCn1c(=O)[nH]/c(=N\c2ccc(Oc3ccc(C(=O)OC)o3)cc2)n(Cc2ccc(Cl)cc2)c1=O` [Compound I-2150], the half-inhibitory concentration (IC50) was 44 nM.

As to `CCn1c(=O)[nH]/c(=N\c2ccc(Oc3cncc(C(=O)O)c3)cc2)n(Cc2ccc(F)cc2)c1=O` [Compound I-2112], the concentration for half-maximal inhibition (IC50) came to 47 nM.

`CNC(=O)Cn1c(=O)[nH]/c(=N\c2ccc(Oc3ccnc(O)c3)cc2)n(Cc2ccc(Cl)cc2)c1=O` [Compound I-1978]: the concentration for half-maximal inhibition (IC50) amounted to 5 nM.

For `CC(C)Oc1ccc(/N=c2\[nH]c(=O)n([C@@H]3C[C@H]3C(=O)O)c(=O)n2Cc2ccc(Cl)cc2)cc1F` [Compound I-0612], the IC50 worked out at 38 nM.

On to `Cc1ccc(Cn2c(=O)n([C@@H](C)[C@@H](C)C(=O)O)c(=O)[nH]/c2=N\c2ccc(OCC(C)C)cc2)cc1` [Compound I-1387], for which the concentration for half-maximal inhibition (IC50) was found to be 44 nM.

Staying with this experiment, now noted: C6BU-1 cells stably expressing human P2X3 receptor, Fluo-3 fluorescence, FDSS 3000.
Take `CCOC(=O)CCn1c(=O)[nH]/c(=N\c2ccc(OCCC(C)C)cc2)n(Cc2ccc(C)cc2)c1=O` [Compound I-1055]: the half-maximal inhibitory concentration (IC50) was found to be 91 nM.

In the case of `CCc1nc2ccc(/N=c3\[nH]c(=O)n(CCCNC(C)=O)c(=O)n3Cc3ccc(Cl)cc3)cc2s1` [Compound I-1613], the IC50 came out at 6 nM.

As to `CCCOc1ccc(/N=c2\[nH]c(=O)n([C@@H](C)[C@@H](C)C(=O)O)c(=O)n2Cc2ccc(C)cc2)cc1` [Compound I-0929], the 50% inhibitory concentration (IC50) amounted to 45 nM.

With `CCOC(=O)CN1CC(n2c(=O)[nH]/c(=N\c3ccc(OC(C)C)c(C)c3)n(Cc3ccc(Cl)cc3)c2=O)C1` [Compound I-1741], the IC50 was determined as 55 nM.

Consider `CCc1nc2ccc(/N=c3\[nH]c(=O)n(CCCO)c(=O)n3Cc3ccc(Cl)cc3)cc2s1` [Compound I-1622], for which the IC50 came to 4 nM.

As to `CCOC(=O)CCn1c(=O)[nH]/c(=N\c2cccc(S(F)(F)(F)(F)F)c2)n(Cc2ccc(Cl)cc2)c1=O` [Compound I-1646], the IC50 was determined as 43 nM.

In the case of `COC(=O)[C@@H](C)Cn1c(=O)[nH]/c(=N\c2ccc(OC(C)C)cc2)n(Cc2ccc(I)cc2)c1=O` [Compound I-1080], the half-maximal inhibitory concentration (IC50) is 66 nM.

In the case of `C[C@@H](Cn1c(=O)[nH]/c(=N\c2ccc(Oc3ccccc3)cc2)n(Cc2ccc(Cl)cc2)c1=O)C(=O)O` [Compound I-0991, (S)-1-(4-chlorobenzyl)-3-(2-hydroxycarbonylpropyl)-6-(4-phenoxyphenylimino)-1,3,5-triazinane-2,4-dion], the IC50 amounted to 22 nM.

As for `CCc1cc2cc(/N=c3\[nH]c(=O)n(C[C@H](C)C(=O)OC)c(=O)n3Cc3ccc(Cl)cc3)ccc2o1` [Compound I-1765], the IC50 amounted to 9 nM.

For `CCCCOc1ccc(/N=c2\[nH]c(=O)n(CC3(C(=O)OCC)CC3)c(=O)n2Cc2ccc(Cl)cc2)cc1` [Compound I-1005], the IC50 was found to be 31 nM.

Turning to `COC(=O)[C@@H](C)Cn1c(=O)[nH]/c(=N\c2ccc(OC3CCC3)nc2)n(Cc2ccc(C)cc2)c1=O` [Compound I-1187], the 50% inhibitory concentration (IC50) was determined as 58 nM.

`Cc1cc(/N=c2\[nH]c(=O)n(CCC(=O)O)c(=O)n2Cc2ccc(Cl)cc2)ccc1OC(C)C` [Compound I-1157]: the IC50 is 52 nM.

Take `Cc1ccc(Cn2c(=O)n(CC3(C(=O)O)CC3)c(=O)[nH]/c2=N\c2ccc(OCC3CC3)c(Cl)c2)cc1` [Compound I-0976]: the IC50 came to 69 nM.

Take `CCn1c(=O)[nH]/c(=N\c2ccc(Oc3cncc(C(=O)O)c3)cc2)n(Cc2ccc(Cl)cc2)c1=O` [Compound I-1885]: the 50% inhibitory concentration (IC50) was found to be 7 nM.

As for `CC(C)Oc1ccc(/N=c2\[nH]c(=O)n(CC3(C(=O)O)CC3)c(=O)n2Cc2ccc(Cl)cc2)cc1` [Compound I-0988], the half-maximal inhibitory concentration (IC50) stood at 93 nM.

On to `CCCOc1ccc(/N=c2\[nH]c(=O)n(C[C@@H](C)C(=O)O)c(=O)n2Cc2ccc(Cl)cc2)cc1` [Compound I-1035], for which the half-inhibitory concentration (IC50) is 65 nM.

With `COC(=O)[C@@H](C)Cn1c(=O)[nH]/c(=N\c2ccc(Cl)c(Cl)c2)n(Cc2ccc(C)cc2)c1=O` [Compound I-0998], the IC50 is 24 nM.

As to `CCOC(=O)CCn1c(=O)[nH]/c(=N\c2ccc(OCC(C)(C)C)cc2)n(Cc2ccc(C)cc2)c1=O` [Compound I-1056], the IC50 worked out at 177 nM.

`CC(=O)NCCn1c(=O)[nH]/c(=N\c2ccc(O[C@H](C)C(F)(F)F)cc2)n(Cc2ccc(Cl)cc2)c1=O` [Compound I-1617]: the half-inhibitory concentration (IC50) was found to be 27 nM.

As to `CCc1oc2ccc(/N=c3\[nH]c(=O)n(CC(=O)OC)c(=O)n3Cc3ccc(Cl)cc3)cc2c1C` [Compound I-1564], the half-inhibitory concentration (IC50) stood at 13 nM.

Take `C[C@@H](C(=O)O)[C@H](C)n1c(=O)[nH]/c(=N\c2ccc3c(c2)OC(F)(F)O3)n(Cc2ccc(Cl)cc2)c1=O` [Compound I-1821]: the IC50 worked out at 429 nM.

Still in this experiment, the particulars now being: human P2X3 receptor, Test Example 1.
As for `CCn1c(=O)[nH]/c(=N\c2ccc(Oc3ncccc3C(N)=O)cc2)n(Cc2ccc(Cl)cc2)c1=O` [Compound I-2365], the IC50 came out at 211 nM.

Consider `COC(=O)[C@@H](C)Cn1c(=O)[nH]/c(=N\c2ccc(OCC(C)C)c(C)c2)n(Cc2ccc(C)cc2)c1=O` [Compound I-0832], for which the half-maximal inhibitory concentration (IC50) was 103 nM.

With `O=c1[nH]/c(=N\c2ccc(Oc3nccs3)cc2)n(Cc2ccc(Cl)cc2)c(=O)n1CC(CO)CO` [Compound I-2437], the IC50 came to 6 nM.

`COC(=O)CCn1c(=O)[nH]/c(=N\c2ccc(Oc3cccc(F)n3)cc2)n(Cc2ccc(Cl)cc2)c1=O` [Compound I-2650]: the IC50 worked out at 3 nM.

Turning to `Cc1nc2ccc(/N=c3\[nH]c(=O)n(CC4(C(=O)O)CC4)c(=O)n3Cc3ccc(Cl)cc3)cc2s1` [Compound I-1552], the half-inhibitory concentration (IC50) amounted to 15 nM.

Consider `Cc1ccc(Cn2c(=O)n(C)c(=O)[nH]/c2=N\c2ccc(Oc3ccc(C(N)=O)cn3)cc2)cc1` [Compound I-2464], for which the half-maximal inhibitory concentration (IC50) turned out to be 10 nM.

On to `O=c1[nH]/c(=N\c2ccc(Oc3ncccc3F)cc2)n(Cc2ccc(Cl)cc2)c(=O)n1CC(CO)CO` [Compound I-2706], for which the IC50 worked out at 6 nM.

`Cc1ccc(Cn2c(=O)n(CCC(=O)O)c(=O)[nH]/c2=N\c2ccc(Oc3cc(C#N)ccn3)cc2)cc1` [Compound I-2661]: the IC50 is 15 nM.

As for `CCn1c(=O)[nH]/c(=N\c2ccc(Oc3ccnc(C(N)=O)n3)cc2)n(Cc2ccc(Cl)cc2)c1=O` [Compound I-2532], the IC50 is 5 nM.

Take `Cc1ccc(Cn2c(=O)n(C[C@H](C)C(=O)O)c(=O)[nH]/c2=N\c2ccc(CC(C)C)c(Cl)c2)cn1` [Compound I-1485]: the IC50 worked out at 235 nM.

On to `CCn1c(=O)[nH]/c(=N\c2ccc(Oc3cccc(C(N)=O)n3)cc2)n(Cc2ccc(F)cc2)c1=O` [Compound I-2495], for which the concentration for half-maximal inhibition (IC50) is 21 nM.

For the compound `Cc1nsc(Oc2ccc(/N=c3\[nH]c(=O)n(CC(=O)O)c(=O)n3Cc3ccc(Cl)cc3)cc2)n1` [Compound I-2579], the 50% inhibitory concentration (IC50) was 71 nM.

Consider `Cn1c(=O)[nH]/c(=N\c2ccc(Oc3ccon3)cc2)n(Cc2ccc(Cl)cc2)c1=O` [Compound I-2356], for which the IC50 was determined as 24 nM.

Consider `CCn1c(=O)[nH]/c(=N\c2ccc(Oc3ccc(C(=O)OC)cn3)cc2)n(C[C@H]2CC[C@H](C)CC2)c1=O` [Compound I-2700], for which the half-inhibitory concentration (IC50) worked out at 353 nM.

For the compound `Cc1cc(/N=c2\[nH]c(=O)n([C@H]3CC[C@@H](C(=O)O)CC3)c(=O)n2Cc2ccc(Cl)cc2)ccc1OC(C)C` [Compound I-0851], the IC50 worked out at 24 nM.

Take `CCn1c(=O)[nH]/c(=N\c2ccc(Oc3ccnc(C#N)c3)cc2)n(Cc2ccc(Cl)cn2)c1=O` [Compound I-2372]: the IC50 came to 32 nM.

Regarding `CCn1c(=O)[nH]/c(=N\c2ccc(Oc3cccc(C(=O)O)n3)cc2)n(C[C@H]2CC[C@H](C)CC2)c1=O` [Compound I-2499], the half-inhibitory concentration (IC50) is 5 nM.

Turning to `NC(=O)Cn1c(=O)[nH]/c(=N\c2ccc(Oc3ncccn3)cc2)n(Cc2ccc(Cl)cc2)c1=O` [Compound I-2686], the half-maximal inhibitory concentration (IC50) is 36 nM.

As for `O=c1[nH]/c(=N\c2ccc(Oc3cncc(F)c3)cc2)n(Cc2ccc(Cl)cc2)c(=O)n1C[C@H](O)CO` [Compound I-2334], the IC50 worked out at 5 nM.

As for `CCn1c(=O)[nH]/c(=N\c2ccc(Oc3ncccn3)cc2)n(Cc2ccc(Cl)cc2)c1=O` [Compound I-2362], the IC50 is 10 nM.

On to `Cc1nsc(Oc2ccc(/N=c3\[nH]c(=O)n(CC(N)=O)c(=O)n3Cc3ccc(Cl)cc3)cc2)n1` [Compound I-2589], for which the IC50 was 6 nM.
